# Peptide text beside a SMILES is read from it. * marks the point of attachment. Cbz = O=C(OCc1ccccc1)*
# Assays:
# NL4-3 strain = test: HIV-1 NL4-3 infection of HeLa-CD4-LTR-LacZ reporter cells, LacZ measured 72 h later; assay type: cell-based; settings: Human immunodeficiency virus 1, NL43; HeLa-CD4-LTR-LacZ cells infected with NL4-3, LacZ at 72 h; mean ± SD, n = 2 to 3; read-out: IC50
# From the text: To understand the structure-function relationship of the dCA molecule with respect to our structural model, we synthesized and characterized the ability of 11 analogs of dCA to inhibit HIV infection (Table 2). […] We used HeLa-CD4 cells stably expressing the HIV-1 5′ LTR driving β-galactosidase production (HeLa-CD4-LTR-LacZ cells) as a reporter for the infection with isolate NL4-3. Table 2 summarizes the IC50, 50% cytotoxic concentration (CC50), and therapeutic index (TI) for each compound. The loss of dCA activity was directly associated with the positioning and the chemical environment of the azote on the F ring and the presence of oxygen in ring B. Moreover, the E-F “skeleton angle” and the distance between the A-B-C-D and F rings affected the activity by more than 50-fold (analogs 7 and 10).
# The activity of Tat in HeLa-CD4-LTR-Luc and OM10.1 cells was verified by a transactivation assay as described in reference. In HeLa-CD4-LTR-LacZ cells, the assay was performed as described in reference. A detailed protocol is provided in Text S1.
# Transactivation assay. In HeLa-CD4-LTR-Luc cells and OM10.1 cells. The activity of Tat was verified by a transactivation assay as previously reported (13). Briefly, HeLa-CD4-LTR-Luc cells and OM10.1 were plated at 1×10^5 and 8x10^5 cells per well of a 6-well plate respectively. The following day, recombinant Tat protein was added to the cells in culture media without serum and in the presence of 100 μM of Chloroquine. Five hours later, serum was added at 5 % to the culture media. Cells were lysed 24 hrs later, protein concentration determined by Bradford assay and luciferase activity was measured for HeLa-CD4-LTR-Luc cells. Results corresponding to luciferase activity per protein concentration of each sample are shown as relative light unit (RLU). As for the OM10.1 cells, RNA was extracted using the RNA extraction kit (Qiagen) and DNA contamination was removed using Turbo-DNAse kit (Ambion). First-strand cDNA was synthesized using SuperscriptIII^TM first-strand cDNA kit (Invitrogen) and random hexamers as first-strand primers. qRT-PCR was performed with an aliquot of cDNA as template, using LightCycler? 480 SYBR Green I Master in a 20 µL reaction according to the manufacturer’s instructions. The mRNAs from each sample were used as negative control. Primer sequences for GAPDH (13) and all viral mRNAs as previously described (59). In HeLa-CD4-LTR-LacZ cells. It was performed as previously described (10). Briefly, cells were plated at 1×10^4 cells per well of a 96-well plate. Twenty-four hrs later HIV-1 NL4-3 strain was added in the presence of testing compound or DMSO. Seventy-two hrs post infection, cells were disrupted in lysis buffer (60 mM Na2HPO4, 40 mM NaH2PO4, 10 mM KCl, 10 mM MgSO4, 2.5 mM EDTA, 50 mM ß-mercaptoethanol, 0.125 % Nonidet P-40) and a quantitative chlorophenol red-ß-D-galactopyranoside (CPRG)-based (Boehringer Mannheim) assay was performed. The cell extracts were incubated in a reaction buffer (0.9 M phosphate buffer [pH 7.4], 9 mM MgCl2, 11 mM ß-mercaptoethanol, 7 mM CPRG) until a red color developed and measured with an LP400 (Becton Dickinson) plate reader at 572 nm.
# [1] = MTT viability assay, 72 h; assay type: cell-based; settings: human, HeLa-CD4-LTR-LacZ cells, mean ± SD, n = 2 to 3
# Procedure: The assay was performed with MTT [3-(4,5-dimethyl-2-thiazolyl)-2,5-diphenyl-2H-tetrazolium bromide] as described in reference.
# [2] = tested on: human umbilical vein endothelial cells (HUVECs); parameters: method as in PMID 16522087, PMID 17765550, PMID 26416749; settings: read-out: EC50, antiproliferative; cited from earlier work
# [3] = tested on: CA-sensitive AML cell lines; parameters: method as in PMID 16522087, PMID 17765550, PMID 26416749; settings: read-out: IC50, antileukemic activity; cited from earlier work
# intracellular Tat = target: T1, intracellular Tat (Human immunodeficiency virus type 1 group M subtype B, UniProt P69697); test: Steady state of recombinant Tat in HeLa-CD4-LTR-Luc cells (Western blot); assay type: cell-based, HIV-1; settings: 6 hours with compound, MG132 10 μM
# T1 construct: pTatC6H-1 (NIH AIDS Reagent Program) plasmid encoding C-terminal 6xHistidine Tat1-86 (HXB3, subtype B); made in house; host or cells: E. coli BL21 (plasmid pTatC6H-1, NIH AIDS Reagent Program)
# Procedure: FIG 5 dCA stabilizes Tat structure. (A) Trp fluorescence assays. (Left) Schematic of the assay. (Center) DMSO, dCA (7.5× Tat concentration) or raltegravir (Ralt.; 7.5× Tat concentration) was incubated with Tat. The fluorescence of the Trp^11 of Tat protein was measured at the indicated wavelengths. Acrylamide (250 mM) was used as a quenching control of Tat fluorescence. (Right) Peak absorbance (λmax) versus increasing fold ratios of compounds to Tat protein. Data are representative of n = 3 independent experiments. (B) DARTS assays. Tat was incubated with DMSO or dCA, at increasing concentrations, in the presence of increasing concentrations of proteinase K (PK). […] Data are representative of n = 2 independent experiments. (C) Steady state of Tat in the presence of dCA in vivo. HeLa-CD4-LTR-Luc cells were incubated with recombinant Tat and then washed and incubated with the indicated compounds for 6 hours. […] (Left) Western blot representative of n = 4 independent experiments. MG132 was used as a positive control of Tat protection from degradation, and raltegravir was used as a negative control. (Right) Densitometry of the Tat band normalized to the actin band. Results represent the mean ± SEM from n = 4 independent experiments. Statistical significance was determined using one-way ANOVA with post hoc Tukey’s test. ns, not significant; ***, P < 0.0001; **, P < 0.001.
# Next, we determined the half-life of recombinant Tat in HeLa-CD4-LTR-Luc cells in the presence of dCA (Fig. 5C). We incubated recombinant Tat with cells for 4 hours, and after several washes to remove extracellular Tat protein, we incubated cells with DMSO, dCA, or raltegravir for an additional 6 hours. Western blotting with anti-His antibody was performed to reveal intracellular Tat. […]
# Half-life of Tat in vivo. […] Total protein concentration was assessed by Bradford assay and Tat protein in each condition determined by western blot with an anti-His antibody at 1:1500 dilution (Thermofisher). […]
# Pep B-TAR interaction = target: T2, Pep B-TAR interaction (Human immunodeficiency virus type 1 group M subtype B, UniProt P20879); test: EMSA of Tat's basic peptide (Pep B) with TAR; assay type: biochemical, HIV-1; settings: Tat basic peptide residues 45 to 59
# T2 construct: Pep B is a peptide encompassing the basic domain of HIV Tat (^45ISYGRKKRRQRRRAP^59)
# From the text: FIG 6 dCA binding to Tat disrupts Tat-TAR interaction. (A) EMSA of full-length Tat with TAR in the presence of dCA. Raltegravir (Ralt.) and deleted bulge TAR (ΔTAR) were used as negative controls. Data are representative of n = 3 independent experiments. (B) EMSA of Tat’s basic domain with TAR in the presence of increasing concentrations of dCA to Tat’s basic peptide. Pep B is a peptide encompassing the basic domain of HIV Tat (^45ISYGRKKRRQRRRAP^59). Pep C (^69LSKQPASQPRGDPTG^83) and unlabeled or cold TAR (TARc) were used as negative controls. Neomycin, which binds to Tat and TAR, was used as a positive control. Ratios of compounds (or TARc) concentrations to peptide are shown. Data are representative of n = 3 independent experiments. […] Shown are ITC results from binding of dCA (left) or Tat peptide (right) to TAR at 25°C. […] For the lower plots, results were converted to molar heats and plotted against the molar ratio of dCA or peptide to RNA. Data are representative of n = 2 independent experiments. (D) Tat-TAR interaction blocked by dCA in HeLa-CD4-LTR-Luc cells in vivo. Cells transfected with Tat or Tat Mut (arginine residues mutated to alanine in Tat’s basic domain) were incubated with DMSO or the indicated compounds (25 nM). Forty-eight hours later, cells were either lysed to determine the luciferase activity or cross-linked for ChIP assays. Luciferase activity was determined relative to protein concentration (Bradford assay) (Fig. S9A). Western blotting was performed to verify the amount of Tat under each condition (Fig. S9B). ChIP of Tat was followed by qRT-PCR of TAR DNA. The results are presented as percentage of input. The mean ± SEM is represented. Data are representative of n = 3 independent experiments. Statistical significance was determined using one-way ANOVA with post hoc Tukey’s test with 3 technical replicates. ns, not significant; ***, P < 0.0001.
# We also performed the same experiment with a peptide encompassing the basic domain of Tat (Pep B; residues 45 to 59) and dCA.
# EMSA With full-length Tat: similar protocol was performed as in Das et al. (60). […]
# T1 sequence (P69697 whole entry): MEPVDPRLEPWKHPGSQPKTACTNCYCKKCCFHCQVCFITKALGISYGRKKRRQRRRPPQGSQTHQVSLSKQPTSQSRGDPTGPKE
Compound,IC50 (NL4-3 strain),CC50 at 72 h [1],also measured
CC(=O)N(C)C1CC23CCC4(O2)C(=CCC2(C)C(c5ccc6ccncc6c5)=CCC24)C=C3C(O)C1O (centres unmarked) [# 3],37 ± 5.8 nM,5600 nM,–
CC12CC=C3C=C4C(O)C(O)C(N)CC45CCC3(O5)C1CC=C2c1ccc2ccncc2c1 (centres unmarked) [# 4],4 ± 0.5 nM,23100 ± 300 nM,–
CN(C)C1CC23CCC4(O2)C(=CCC2(C)C(c5ccc6cnncc6c5)=CCC24)C=C3C(O)C1O (centres unmarked) [# 5],141 nM,16400 nM,–
Cc1n[nH]c2cc(C3=CCC4C3(C)CC=C3C=C5C(O)C(O)C(N(C)C)CC56CCC34O6)ccc12 (centres unmarked) [# 6],67.5 ± 6.8 nM,12100 ± 800 nM,–
CN(C)C1CC23CCC4(O2)C(=CCC2(C)C(c5ccc6ccncc6c5)C(=O)CC42)C=C3C(O)C1O (centres unmarked) [# 9],0.5 ± 0.1 nM,> 50000 nM,–
"CN(C)[C@H]1C[C@@]23CC[C@@]4(O2)C(=CC[C@]2(C)[C@@H](c5ccc6ccncc6c5)CC[C@H]24)C=C3[C@@H](O)[C@@H]1O [CA, cortistatin A]",–,–,EC50 [2]: 350 nM; IC50 [3]: ~10 nM
CC(C)C[C@@H](C=O)NC(=O)[C@H](CC(C)C)NC(=O)[C@H](CC(C)C)NC(=O)OCc1ccccc1 [MG132] (Cbz-Leu-Leu-Leu-aldehyde),–,–,percentage of remaining Tat (intracellular Tat): 40%
neomycin,–,–,inhibition of Pep B-TAR interaction (EMSA) (Pep B-TAR interaction): inhibited the interaction of Pep B with TAR
